Two compounds from paper PMC11046380 (2024) can be followed below.

A word on the Kd: it is the constant that tells how readily two partners part at equilibrium. A low value points to a tighter complex.

In experiment [1] the test system is BMAA_159_min (FAM-labeled) (DNA, aptamer) GGCTCGGCCCTGGGTGAGGGGCGCAGTGGGGTGTAGCCAG
As to the kind of experiment: BMAA-conjugated plate fluorescence assay. To be noted: 100 mM NaCl, 5 mM MgCl2, 20 mM Tris pH 7.6, room temperature, immobilised compound on streptavidin plate.

The test system of experiment [2] is BMAA_165_min (FAM-labeled) (DNA, aptamer) GGGCGTGTGTGGGAGGGGGCACTTCGTCGGGGTGAGCCAG
The experiment is described as follows: BMAA-conjugated plate fluorescence assay. To be noted: 100 mM NaCl, 5 mM MgCl2, 20 mM Tris pH 7.6, room temperature, immobilised compound on streptavidin plate.

Experiment [3] has as its system BMAA_159_min (DNA, aptamer) GGCTCGGCCCTGGGTGAGGGGCGCAGTGGGGTGTAGCCAG
As to the kind of experiment: 1H NMR titration. To be noted: 100 mM NaCl, 2 mM MgCl2; 20 mM sodium phosphate, 10% D2O, 298 K; qualitative.

Experiment [4] concerns BMAA_165_min (DNA, aptamer) GGGCGTGTGTGGGAGGGGGCACTTCGTCGGGGTGAGCCAG
As to the kind of experiment: 1H NMR titration. To be noted: 100 mM NaCl, 2 mM MgCl2; 20 mM sodium phosphate, 10% D2O, 298 K; qualitative.

For experiment [5], the system named is BMAA_159_min (DNA, aptamer) GGCTCGGCCCTGGGTGAGGGGCGCAGTGGGGTGTAGCCAG
The experiment is described as follows: circular dichroism. To be noted: 100 mM NaCl (100 mM KCl in legend), 5 mM MgCl2; 20 mM Tris pH 7.6, room temperature; qualitative.

Experiment [6] has as its system BMAA_159 (DNA, aptamer) TGTACCGTCTGAGCGATTCGTACGGCTCGGCCCTGGGTGAGGGGCGCAGTGGGGTGTAGCCAGTCAGTGTTAAGGAGTGC
The experiment is described as follows: SYBR Green I fluorescence displacement. To be noted: 100 mM NaCl, 5 mM MgCl2; 20 mM Tris pH 7.6, room temperature; SYBR Green I displaced; one-site fit.

The test system of experiment [7] is BMAA_165 (DNA, aptamer) TGTACCGTCTGAGCGATTCGTACGGGCGTGTGTGGGAGGGGGCACTTCGTCGGGGTGAGCCAGTCAGTGTTAAGGAGTGC
As to the kind of experiment: SYBR Green I fluorescence displacement. To be noted: 100 mM NaCl, 5 mM MgCl2; 20 mM Tris pH 7.6, room temperature; SYBR Green I displaced; one-site fit.

In experiment [8] the test system is BMAA_165_scrambled (DNA, aptamer) TGTACCGTCTGAGCGATTCGTACAGTCGTTGGGGGGGGGGGTGAGCGTTGCGCGCGTAGCCAGTCAGTGTTAAGGAGTGC
The experiment is described as follows: SYBR Green I fluorescence displacement. To be noted: 100 mM NaCl, 5 mM MgCl2; 20 mM Tris pH 7.6, room temperature; SYBR Green I displaced; up to 25 μM BMAA.

The subject of experiment [9] is BMAA_172 (DNA, aptamer) TGTACCGTCTGAGCGATTCGTACGGGGGCCAGTGAATGAGTTGGGGTGGTAATGGGGAGCCAGTCAGTGTTAAGGAGTGC
As to the kind of experiment: SYBR Green I fluorescence displacement. To be noted: 100 mM NaCl, 5 mM MgCl2, 20 mM Tris pH 7.6, room temperature, four of five candidates bind, not named.

The test system of experiment [10] is BMAA_38 (DNA, aptamer) TGTACCGTCTGAGCGATTCGTACGGGGGTTCACGCTCGAGGGGGCCACAGGGGGAGTAGCCAGTCAGTGTTAAGGAGTGC
The experiment is described as follows: SYBR Green I fluorescence displacement. To be noted: 100 mM NaCl, 5 mM MgCl2, 20 mM Tris pH 7.6, room temperature, four of five candidates bind, not named.

In experiment [11] the test system is BMAA_165_min (biosensing) (DNA, aptamer) GGGCGTGTGTGGGAGGGGGCACTTCGTCGGGGTG
The experiment is described as follows: electrochemical aptamer sensor (SWV, EIS). To be noted: 4 mM NaCl, 0.2 mM MgCl2.

As to `CNCC(NC(=O)CCOCCOCCOCCOCCNC(=O)CCCC[C@@H]1SC[C@@H]2NC(=O)N[C@@H]21)C(=O)O` (some centres unmarked), the “apparent Kd” value was determined as 6000 ± 1000 nM in experiment [1] and 630 ± 20 nM in experiment [2].

On to `CNC[C@H](N)C(=O)O`, for which the binding entry is listed as “yes” in [3]; “yes” in [4]; “yes” in [5]; “no” in experiment [8]; “yes” in experiment [11]. For the same compound, the Kd was found to be 2200 ± 100 nM in experiment [6] and 320 ± 20 nM in [7]. Besides, the figures for the “apparent Kd” value in experiment [9] and in experiment [10] were 6.50 (5.23-9.56) uM and 18.6 (3.08-102) uM, respectively.
